Assays:
[1] = system: male SD rats; assay: Effects on amount of urinary phosphorus in normal rats; type: in vivo; conditions: 0.5 g in feed (20 g/rat/day) containing 0.58% phosphorus, 5 days, vs control, FIG. 2
Method: Effects on Amount of Blood and Urinary Phosphorus in Normal Rats
Using male SD rats (aged 8 weeks), the experiments on suppressive effects for the increase of urinary phosphorus amount in the weakly basic anion exchange resin (Ionac A-365; Sybron Chemicals Co.) or calcium carbonate were carried out as follows.
Namely, after the rats were given with feed (20 g/rat/day) containing 0.3% phosphorus for 7 days, feed (20 g/rat/day) containing 0.58% phosphorus was mixed with 0.5 g of Ionac A-365 or calcium carbonate and the mix feed was further administered to the rats for 5 days. Further, urine was collected for 24 hours before the drug administration and 5 days after the drug administration, and the amount of urinary phosphorus was calculated based on the urinary phosphorus concentration and the amount of urine. The urinary phosphorus concentration was measured by an inorganic phosphorus measurement reagent (P Test Wako). The increased amount of urinary phosphorus excretion was calculated based on the obtained difference of urinary phosphorus amount between before drug administration and 5 days after the drug administration, and compared with that of the non-administration group (control). As for rats in each group, 6 rats in each were subjected to the experiments.

[2] = system: rats with ⅚ nephrectomy; assay: Effects on blood phosphorus concentration and renal function in rats with 5/6 nephrectomy; type: in vivo, rat; conditions: 0.3 g in 15 g of feed, 12 weeks after nephrectomy, vs control
Method: Effects on Blood Phosphorus Concentration and Renal Function in Rats With ⅚ Nephrectomy
Using male SD rats (aged 9 weeks), the experiments on the effects for the lowering action of urinary phosphorus amount and the renal function in the weakly basic anion exchange resin (Ionac A-365; Sybron Chemicals. Co.) or calcium carbonate were carried out as follows.
Namely, ⅔ of the left kidney was removed, after 1 week the right kidney being totally removed to make rats with ⅚ nephrectomy. After 1 week, a mixed feed administration of calcium carbonate or Ionac A-365 started. As a powder feed for rat MF manufactured by Oriental Yeast was used, and the administration dose was made 0.3 g content in 15 g of the feed. 12 weeks after the preparation of rats with ⅚ nephrectomy, blood was collected from the caudal vein, and the blood phosphorus concentration was measured by an inorganic phosphorus measurement reagent (P Test Wako). Also, urine was collected for 24 hours before the nephrectomy and 12 weeks after the nephrectomy, and the urinary protein concentration being measured by a protein measurement reagent (Protein Assay Kit, Bio-lad). As for rats in each group, 9 rats in each were subjected to the experiments.

With `O=C([O-])[O-].[Ca+2]` [calcium carbonate] the “increase of urinary phosphorus excretion” value [1] was “significantly suppressed compared with that of control”, the blood phosphorus concentration ([2]; FIG. 3) was “no significant difference in blood phosphorus concentration compared with control” and the “increase of urinary protein excretion amount” value ([2]; FIG. 4) was “significantly suppressed compared with control”.
